Like-named read-outs stand apart in the source and are kept apart here.
Experiments:
[1] = test system: 6 Hz (32 mA) seizures in mice; assay: 6 Hz (32 mA) psychomotor seizure model; format: in vivo; details: Mus musculus, ip; for responders at 100 mg/kg: 100 mg/kg i.p., 0.5 h; for ED50: mice, pretreatment time 0.5 h, (95% confidence limits)
Procedure: (§1) Adult male Albino Swiss mice that weighed between 22 and 26 g were used in the in vivo studies. They were housed under standardized housing conditions in colony cages and had free access to food as well as tap water. The animals were left to adapt under laboratory conditions for 7 days. All procedures involving animals and their care were performed in accordance with the current European Community and Polish legislation on animal experimentation.
(§2) In the initial screening studies, four mice per group were randomly assigned to each experimental group (each mouse was used only once). To evaluate the ED50 or TD50 values, 3–4 groups that consisted of eight animals were injected with various doses of tested compounds. The protective indexes (PIs) for the compounds that were investigated and reference ASDs were calculated by dividing the TD50 value, as determined in the chimney test (or rotarod test), by the respective ED50 value, as determined in the MES, scPTZ, or 6 Hz (32 mA or 44 mA) tests (PI = TD50/ED50). The PIs is a measure of the potential therapeutic window of the tested agent.
(§3) All substances were suspended in Tween 80 (1% aqueous solution) and administered i.p. as a single injection at a dose of 10 mL/kg. On each day of experimentation, fresh solutions were prepared. The results are summarized in Table S1 (screening data) and Table 2 (ED50, TD50, and PI values, see Section 3 Results and Discussion).
(§4) The detailed in vivo procedures are described elsewhere: the maximal electroshock seizure test (MES), the subcutaneous pentylenetetrazole seizure test (scPTZ), the 6 Hz psychomotor seizure model (32 mA and 44 mA), and the chimney test.
(§5) The basic animal seizure models such as the MES, 6 Hz (32 mA or 44 mA), and the scPTZ are still a standard in the discovery and development of new ASDs. In vivo screening approaches enable the identification of compounds with unidentified and potentially novel mechanisms of action besides substances with well-established pharmacodynamics. Bearing in mind the aforementioned facts, compounds 45–66 were initially studied in the MES test and in the 6 Hz seizure model (32 mA) after intraperitoneal (i.p.) administration at a screening dose of 100 mg/kg in mice at a time point of 0.5 h (the screening group consisted of four mice, the results obtained are summarized in Table S1). It should be stressed that the MES test is an experimental model of human tonic–clonic epilepsy as well as partial convulsions with or without secondary generalization, the 6 Hz model (32 mA) corresponds to human focal epilepsy, whereas the scPTZ test relates to human generalized absence or myoclonic seizures.
(§6) We also established the median toxic doses (TD50) in the chimney test 0.5 h post i.p. administration of these compounds. Both the aforementioned parameters enabled the calculation of the protective indexes (PIs).

[2] = test system: MES-induced seizures in mice; assay: Maximal electroshock seizure (MES) test; format: in vivo; details: for responders at 100 mg/kg / ED50: Mus musculus, ip; for responders at 100 mg/kg / protection in MES screening: 100 mg/kg i.p., 0.5 h; for responders at 100 mg/kg: read-out: MES screening: number of mice protected/number of mice tested (converted); for protection in MES screening: four mice; for ED50: mice, pretreatment time 0.5 h, (95% confidence limits)
Procedure: as §1, §2, §3, §4, §5, §6

[3] = biological target: T1, TRPV1 (VR1) (h) (Homo sapiens, UniProt Q8NER1); assay: TRPV1 (VR1) (h) antagonist effect functional assay; format: cell-based; details: human recombinant CHO cells, read-out: % Inhibition of control agonist response, TRPV1 (antagonist effect)
T1 construct: host or cells: CHO
Procedure: Binding/functional studies were carried out commercially in Eurofins Laboratories (Poitiers, France) and Eurofins Panlabs Discovery Services Taiwan, Ltd. (New Taipei City, Taiwan) using testing procedures that were reported previously (for details see Table S2).
Table S2. Radioligand binding and functional assays. […]
Assays were performed commercially in Eurofins Laboratories (Poitiers, France) or Eurofins Panlabs Discovery Services Taiwan, Ltd. (New Taipei City, Taiwan).
Table S3. In vitro TRPV1 channel antagonist activity for compounds 45–66 (concentration of 100 µM). […]
Cmpd % Inhibition of control Cmpd % Inhibition of control agonist responsea agonist responsea
*Source: human recombinant CHO cells. a Results showing activity higher than 50% are considered to represent […]
variability of the sign al around the control level. Assays were performed commercially in Eurofins Laboratories

[4] = test system: MES-induced seizures in mice; details: i.p., pretreatment 1.0 h; cited from earlier work
[5] = biological target: T2, Calcium Cav1.2 channels (dihydropyridine site) (Homo sapiens, UniProt Q13936); assay: Calcium Cav1.2 channel binding (dihydropyridine site, antagonist radioligand); details: 100 µM; human recombinant HEK-293 cell; read-out: % Inhibition of Control Specific Binding, Cav1.2 (dihydropyridine site)
T2 construct: host or cells: HEK-293

[6] = test system: Na+ channel (site 2); assay: Na+ channel (site 2) radioligand binding; details: 100 µM; rat cerebral cortex
[7] = test system: scPTZ-induced seizures in mice; assay: Subcutaneous pentylenetetrazole (scPTZ) seizure test; format: in vivo; details: 100 mg/kg i.p., 0.5 h
Procedure: as §1, §2, §3, §4, §5

[8] = four mice, read-out: protection in 6 Hz (32 mA) screening
[9] = read-out: 6 Hz (32 mA) screening: number of mice protected/number of mice tested (converted)

T1 sequence (Q8NER1 whole entry): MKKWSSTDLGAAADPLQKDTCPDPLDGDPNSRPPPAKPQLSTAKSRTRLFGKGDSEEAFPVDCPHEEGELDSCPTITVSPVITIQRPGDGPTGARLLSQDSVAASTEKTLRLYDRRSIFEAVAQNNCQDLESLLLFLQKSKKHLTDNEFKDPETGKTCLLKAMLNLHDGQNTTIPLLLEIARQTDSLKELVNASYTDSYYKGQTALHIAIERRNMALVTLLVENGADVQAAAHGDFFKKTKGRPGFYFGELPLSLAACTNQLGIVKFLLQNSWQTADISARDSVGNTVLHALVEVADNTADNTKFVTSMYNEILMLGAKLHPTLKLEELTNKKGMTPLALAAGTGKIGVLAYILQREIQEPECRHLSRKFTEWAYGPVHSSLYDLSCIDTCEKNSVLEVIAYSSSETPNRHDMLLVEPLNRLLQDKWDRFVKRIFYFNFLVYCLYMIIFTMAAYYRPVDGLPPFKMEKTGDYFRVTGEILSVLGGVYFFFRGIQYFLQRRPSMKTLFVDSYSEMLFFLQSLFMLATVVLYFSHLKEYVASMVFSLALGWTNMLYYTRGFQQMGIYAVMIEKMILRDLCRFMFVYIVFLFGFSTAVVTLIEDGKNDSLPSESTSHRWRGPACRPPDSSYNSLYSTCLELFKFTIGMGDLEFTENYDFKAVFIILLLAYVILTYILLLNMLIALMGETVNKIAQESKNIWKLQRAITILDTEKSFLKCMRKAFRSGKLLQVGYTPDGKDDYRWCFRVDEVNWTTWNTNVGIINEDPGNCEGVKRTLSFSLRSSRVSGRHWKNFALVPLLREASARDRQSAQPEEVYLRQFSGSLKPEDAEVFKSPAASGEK
T2 sequence (Q13936 whole entry): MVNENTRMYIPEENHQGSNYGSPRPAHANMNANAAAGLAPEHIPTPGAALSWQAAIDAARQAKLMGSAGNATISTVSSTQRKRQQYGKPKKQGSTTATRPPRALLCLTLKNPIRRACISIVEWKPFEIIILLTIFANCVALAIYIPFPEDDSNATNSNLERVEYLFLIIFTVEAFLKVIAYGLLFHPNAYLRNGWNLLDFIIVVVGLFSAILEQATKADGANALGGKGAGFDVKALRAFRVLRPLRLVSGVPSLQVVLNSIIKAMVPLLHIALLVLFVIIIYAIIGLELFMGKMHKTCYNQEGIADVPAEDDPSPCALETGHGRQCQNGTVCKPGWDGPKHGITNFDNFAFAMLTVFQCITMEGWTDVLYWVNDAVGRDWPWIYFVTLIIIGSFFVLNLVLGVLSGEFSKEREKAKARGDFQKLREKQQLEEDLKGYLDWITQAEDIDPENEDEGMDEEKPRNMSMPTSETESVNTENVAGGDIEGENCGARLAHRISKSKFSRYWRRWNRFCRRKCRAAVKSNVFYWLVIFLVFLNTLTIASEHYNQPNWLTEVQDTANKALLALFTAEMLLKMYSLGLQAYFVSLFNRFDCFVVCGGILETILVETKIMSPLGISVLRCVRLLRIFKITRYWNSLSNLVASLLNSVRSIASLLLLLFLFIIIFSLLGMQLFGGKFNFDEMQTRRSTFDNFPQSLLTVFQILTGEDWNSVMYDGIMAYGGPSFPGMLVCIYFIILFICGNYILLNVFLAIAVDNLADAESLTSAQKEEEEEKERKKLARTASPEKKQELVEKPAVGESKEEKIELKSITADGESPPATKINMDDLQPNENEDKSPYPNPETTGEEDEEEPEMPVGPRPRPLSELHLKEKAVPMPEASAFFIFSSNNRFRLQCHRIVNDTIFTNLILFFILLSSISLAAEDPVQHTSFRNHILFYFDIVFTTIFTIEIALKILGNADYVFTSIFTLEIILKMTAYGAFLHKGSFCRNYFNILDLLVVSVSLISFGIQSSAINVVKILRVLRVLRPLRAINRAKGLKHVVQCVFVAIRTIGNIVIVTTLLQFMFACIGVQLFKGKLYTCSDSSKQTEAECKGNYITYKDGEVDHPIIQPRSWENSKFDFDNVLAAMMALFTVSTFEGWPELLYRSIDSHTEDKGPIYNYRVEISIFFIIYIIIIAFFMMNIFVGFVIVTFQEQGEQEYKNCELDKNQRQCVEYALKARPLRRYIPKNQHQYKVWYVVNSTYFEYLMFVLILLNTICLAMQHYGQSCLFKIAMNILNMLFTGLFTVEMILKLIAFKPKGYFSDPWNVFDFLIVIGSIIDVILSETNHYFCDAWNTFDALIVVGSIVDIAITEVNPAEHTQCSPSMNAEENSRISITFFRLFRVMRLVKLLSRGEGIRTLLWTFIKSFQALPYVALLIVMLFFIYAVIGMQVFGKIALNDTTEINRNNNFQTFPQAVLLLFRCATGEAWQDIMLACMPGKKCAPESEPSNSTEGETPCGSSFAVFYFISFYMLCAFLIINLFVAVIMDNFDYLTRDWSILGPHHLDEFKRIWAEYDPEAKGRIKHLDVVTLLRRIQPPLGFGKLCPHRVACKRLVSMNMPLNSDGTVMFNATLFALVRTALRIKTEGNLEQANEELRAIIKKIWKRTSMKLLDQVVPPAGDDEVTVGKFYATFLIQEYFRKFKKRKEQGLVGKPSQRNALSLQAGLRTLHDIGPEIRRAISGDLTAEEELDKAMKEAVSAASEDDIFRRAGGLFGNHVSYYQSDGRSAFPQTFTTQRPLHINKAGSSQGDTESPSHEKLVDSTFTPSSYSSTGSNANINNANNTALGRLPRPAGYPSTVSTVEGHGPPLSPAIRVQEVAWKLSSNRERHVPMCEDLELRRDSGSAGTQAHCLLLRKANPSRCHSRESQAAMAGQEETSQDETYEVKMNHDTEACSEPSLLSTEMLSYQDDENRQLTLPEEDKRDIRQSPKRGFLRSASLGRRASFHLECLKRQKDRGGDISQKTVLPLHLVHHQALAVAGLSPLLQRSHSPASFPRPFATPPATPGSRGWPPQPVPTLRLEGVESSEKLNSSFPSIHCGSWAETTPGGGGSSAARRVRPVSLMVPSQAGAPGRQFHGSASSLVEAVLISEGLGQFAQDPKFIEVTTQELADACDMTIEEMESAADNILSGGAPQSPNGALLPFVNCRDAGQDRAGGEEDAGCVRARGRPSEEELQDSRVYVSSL
T2 sequence (Q08289 whole entry partner): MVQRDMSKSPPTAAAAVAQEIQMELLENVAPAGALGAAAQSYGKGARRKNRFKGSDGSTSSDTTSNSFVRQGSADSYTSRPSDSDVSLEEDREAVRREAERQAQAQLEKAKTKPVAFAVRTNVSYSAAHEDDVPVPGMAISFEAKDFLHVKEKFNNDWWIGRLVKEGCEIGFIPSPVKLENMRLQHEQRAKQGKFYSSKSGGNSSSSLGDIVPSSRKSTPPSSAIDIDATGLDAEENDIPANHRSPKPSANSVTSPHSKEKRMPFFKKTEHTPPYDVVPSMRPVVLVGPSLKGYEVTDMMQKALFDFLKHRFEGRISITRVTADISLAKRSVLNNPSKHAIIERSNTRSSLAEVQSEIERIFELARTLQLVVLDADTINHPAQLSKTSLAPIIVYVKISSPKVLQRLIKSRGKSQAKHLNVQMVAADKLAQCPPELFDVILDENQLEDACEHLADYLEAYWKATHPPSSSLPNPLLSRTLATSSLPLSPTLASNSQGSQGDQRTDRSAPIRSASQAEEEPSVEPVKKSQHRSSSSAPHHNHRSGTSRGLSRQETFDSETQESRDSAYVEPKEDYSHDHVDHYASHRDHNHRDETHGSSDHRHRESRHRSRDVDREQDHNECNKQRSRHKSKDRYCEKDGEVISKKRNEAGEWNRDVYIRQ
T2 sequence (P54289 25-956 partner limits assumed): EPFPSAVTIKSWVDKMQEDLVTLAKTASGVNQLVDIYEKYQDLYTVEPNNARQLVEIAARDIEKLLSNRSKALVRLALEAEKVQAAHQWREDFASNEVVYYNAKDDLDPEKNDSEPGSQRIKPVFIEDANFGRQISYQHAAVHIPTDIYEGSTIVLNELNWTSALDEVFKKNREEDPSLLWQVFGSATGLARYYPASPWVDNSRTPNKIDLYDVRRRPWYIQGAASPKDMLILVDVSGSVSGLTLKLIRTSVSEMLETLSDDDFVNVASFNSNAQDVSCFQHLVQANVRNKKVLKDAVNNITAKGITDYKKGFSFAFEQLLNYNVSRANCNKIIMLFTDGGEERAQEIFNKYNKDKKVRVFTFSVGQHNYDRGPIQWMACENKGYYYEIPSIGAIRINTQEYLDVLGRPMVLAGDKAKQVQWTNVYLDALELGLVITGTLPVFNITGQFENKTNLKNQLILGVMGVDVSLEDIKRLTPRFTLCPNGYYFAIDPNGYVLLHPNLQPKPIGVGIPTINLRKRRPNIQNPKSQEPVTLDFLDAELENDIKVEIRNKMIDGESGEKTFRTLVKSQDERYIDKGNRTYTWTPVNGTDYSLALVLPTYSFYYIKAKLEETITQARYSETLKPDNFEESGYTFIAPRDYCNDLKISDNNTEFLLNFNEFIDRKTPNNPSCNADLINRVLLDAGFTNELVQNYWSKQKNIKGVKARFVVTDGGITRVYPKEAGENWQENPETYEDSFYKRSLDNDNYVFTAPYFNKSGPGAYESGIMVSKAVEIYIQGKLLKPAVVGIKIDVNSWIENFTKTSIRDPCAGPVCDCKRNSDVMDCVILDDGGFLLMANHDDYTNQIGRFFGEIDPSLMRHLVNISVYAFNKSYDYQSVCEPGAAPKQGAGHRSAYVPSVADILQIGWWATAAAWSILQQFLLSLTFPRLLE
T2 sequence (P54289 957-1103 partner limits assumed): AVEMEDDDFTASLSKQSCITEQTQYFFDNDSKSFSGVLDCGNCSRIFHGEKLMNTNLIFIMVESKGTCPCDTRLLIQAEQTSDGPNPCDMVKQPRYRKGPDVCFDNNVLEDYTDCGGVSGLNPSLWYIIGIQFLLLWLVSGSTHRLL

`CC(=O)NC(C(=O)N1CCN(c2cccc(-c3ccccc3)c2)CC1)c1ccccc1` (centres unmarked) [Compound 58, N-(2-(4-([1,1’-biphenyl]-3-yl)piperazin-1-yl)-2-oxo-1-phenylethyl)acetamide] showed a responders at 100 mg/kg [1, 8] of 50%, a responders at 100 mg/kg [1, 9] of 50% and a responders at 100 mg/kg [2] of 0%. It also gave an inhibition at 100 µM [3] of 92%.

Compound `CC(=O)NC(C(=O)N1CCN(c2cccc(Oc3ccccc3)c2)CC1)c1ccccc1` (centres unmarked) [Compound 61, N-(2-oxo-2-(4-(3-phenoxyphenyl)piperazin-1-yl)-1-phenylethyl)acetamide] has a responders at 100 mg/kg [1, 9] of 25%, a responders at 100 mg/kg [2] of 0% and an inhibition at 100 µM [3] of 52.5%.

For `C=C(C)[C@@H]1CCC(C)=C[C@H]1c1c(O)cc(CCCCC)cc1O` [CBD, cannabidiol, reference compound], the “ED50 MES” value [4] is given as 80.0 (65.5−96.0) mg/kg, the inhibition at 100 µM [5] is given as 58% and the “% Inhibition of Control Specific Binding, Na+ channel (site 2)” value [6] is given as 94.8 (100) %. The inhibition at 100 µM [3] was 48%.

`CC(=O)NC(C(=O)N1CCN(c2cccc(C)c2)CC1)c1ccccc1` (centres unmarked) [Compound 56, N-(2-oxo-1-phenyl-2-(4-(m-tolyl)piperazin-1-yl)ethyl)acetamide] gave a responders at 100 mg/kg [1, 9] of 25%, a responders at 100 mg/kg [2] of 0% and an inhibition at 100 µM [3] of 57.4%.

For `CC(=O)NC(C(=O)N1CCN(c2ccc(C(F)(F)F)cn2)CC1)c1ccccc1` (centres unmarked) [Compound 65, N-(2-oxo-1-phenyl-2-(4-(5-(trifluoromethyl)pyridine-2-yl)piperazin-1-yl)ethyl)acetamide], the melting point was 91.2 to 92.4 °C, the responders at 100 mg/kg [1, 8] was 75% and the responders at 100 mg/kg [1, 9] was 75%. The ED50 [1] was 64.9 mg/kg, the “protection in MES screening” value [2] was 75% and the responders at 100 mg/kg [2] was 75%. For the same compound, the ED50 [2] was > 100 mg/kg, the “scPTZ screening: number of mice protected/number of mice tested” value [7] was 0/4 and the inhibition at 100 µM [3] was 8.5%.

For `CC(=O)NC(C(=O)N1CCN(c2ncccc2C(F)(F)F)CC1)c1ccccc1` (centres unmarked) [Compound 63, N-(2-oxo-1-phenyl-2-(4-(3-(trifluoromethyl)pyridine-2-yl)piperazin-1-yl)ethyl)acetamide], the melting point was 147.8 to 148.9 °C, the responders at 100 mg/kg [2] was 0% and the inhibition at 100 µM [3] was -2.8%.

`CC(=O)NC(C(=O)N1CCN(c2ccc(Cl)cc2)CC1)c1ccccc1` (centres unmarked) [Compound 48, N-(2-(4-(4-chlorophenyl)piperazin-1-yl)-2-oxo-1-phenylethyl)acetamide] showed a melting point of 133.3 to 134.6 °C, a responders at 100 mg/kg [1, 8] of 75% and a responders at 100 mg/kg [1, 9] of 75%. For the same compound, the ED50 [1] was 60.1 mg/kg, the “protection in MES screening” value [2] was 25% and the responders at 100 mg/kg [2] was 25%. The ED50 [2] was > 150 mg/kg and the inhibition at 100 µM [3] was 127%.

`CC(=O)NC(C(=O)N1CCN(c2ccc(Cl)c(Cl)c2)CC1)c1ccccc1` (centres unmarked) [Compound 49, N-(2-(4-(3,4-dichlorophenyl)piperazin-1-yl)-2-oxo-1-phenylethyl)acetamide] gave a responders at 100 mg/kg [1, 9] of 25%, a responders at 100 mg/kg [2] of 0% and an inhibition at 100 µM [3] of 135%.

In the case of `COc1cccc(N2CCN(C(=O)C(NC(C)=O)c3ccccc3)CC2)c1` (centres unmarked) [Compound 59, N-(2-(4-(3-methoxyphenyl)piperazin-1-yl)-2-oxo-1-phenylethyl)acetamide], the responders at 100 mg/kg [2] is reported as 0% and the inhibition at 100 µM [3] is reported as 20.1%.

In the case of `CC(=O)NC(C(=O)N1CCN(c2ccccc2C(F)(F)F)CC1)c1ccccc1` (centres unmarked) [Compound 52, N-(2-oxo-1-phenyl-2-(4-(2-(trifluoromethyl)phenyl)piperazin-1-yl)ethyl)acetamide], the responders at 100 mg/kg [1, 8] is reported as 50%, the responders at 100 mg/kg [1, 9] is reported as 50% and the responders at 100 mg/kg [2] is reported as 0%. The inhibition at 100 µM [3] was 90.9%.

`CC(=O)NC(C(=O)N1CCN(c2cc(Cl)cc(C(F)(F)F)c2)CC1)c1ccccc1` (centres unmarked) [Compound 51, N-(2-(4-(3-chloro-5-(trifluoromethyl)phenyl)piperazin-1-yl)-2-oxo-1-phenylethyl) acetamide] gave a responders at 100 mg/kg [1, 9] of 25%, a responders at 100 mg/kg [2] of 0% and an inhibition at 100 µM [3] of -2.5%.

In the case of `CC(=O)NC(C(=O)N1CCN(c2cccc(C(F)(F)F)n2)CC1)c1ccccc1` (centres unmarked) [Compound 66, N-(2-oxo-1-phenyl-2-(4-(6-(trifluoromethyl)pyridine-2-yl)piperazin-1-yl)ethyl)acetamide], the melting point is reported as 151.6 to 152.3 °C, the responders at 100 mg/kg [1, 8] is reported as 50% and the responders at 100 mg/kg [1, 9] is reported as 50%. For the same compound, the responders at 100 mg/kg [2] was 0% and the inhibition at 100 µM [3] was 3.7%.

`CC(=O)NC(C(=O)N1CCN(c2cc(Cl)cc(Cl)c2)CC1)c1ccccc1` (centres unmarked) [Compound 50, N-(2-(4-(3,5-dichlorophenyl)piperazin-1-yl)-2-oxo-1-phenylethyl)acetamide] gave a melting point of 185.9 to 187.3 °C, a responders at 100 mg/kg [1, 9] of 25% and a responders at 100 mg/kg [2] of 0%. The inhibition at 100 µM [3] was 128%.

`CC(=O)NC(C(=O)N1CCN(c2ccc(C(F)(F)F)cc2)CC1)c1ccccc1` (centres unmarked) [Compound 54, N-(2-oxo-1-phenyl-2-(4-(4-(trifluoromethyl)phenyl)piperazin-1-yl)ethyl)acetamide] gave a responders at 100 mg/kg [1, 8] of 50%, a responders at 100 mg/kg [1, 9] of 50% and a responders at 100 mg/kg [2] of 0%. The inhibition at 100 µM [3] was 128%.

Work on `CC(=O)NC(C(=O)N1CCN(c2cccc(C(F)F)c2)CC1)c1ccccc1` (centres unmarked) [Compound 57, N-(2-(4-(3-(difluoromethyl)phenyl)piperazin-1-yl)-2-oxo-1-phenylethyl)acetamide] yielded a responders at 100 mg/kg [1, 9] of 25%, a responders at 100 mg/kg [2] of 0% and an inhibition at 100 µM [3] of 43.7%.

`CC(=O)NC(C(=O)N1CCN(c2ccccc2Cl)CC1)c1ccccc1` (centres unmarked) [Compound 46, N-(2-(4-(2-chlorophenyl)piperazin-1-yl)-2-oxo-1-phenylethyl)acetamide] showed a responders at 100 mg/kg [1, 8] of 50%, a responders at 100 mg/kg [1, 9] of 50% and a responders at 100 mg/kg [2] of 0%. It also gave an inhibition at 100 µM [3] of 116%.

`CC(=O)NC(C(=O)N1CCN(c2cc(C(F)(F)F)cc(C(F)(F)F)c2)CC1)c1ccccc1` (centres unmarked) [Compound 55, N-(2-(4-(3,5-bis(trifluoromethyl)phenyl)piperazin-1-yl)-2-oxo-1-phenylethyl)acetamide] showed a melting point of 194.2 to 195.4 °C, a responders at 100 mg/kg [1, 9] of 25% and a responders at 100 mg/kg [2] of 0%. For the same compound, the inhibition at 100 µM [3] was -14%.

For `CC(=O)NC(C(=O)N1CCN(c2cc(C(F)(F)F)ccn2)CC1)c1ccccc1` (centres unmarked) [Compound 64, N-(2-oxo-1-phenyl-2-(4-(4-(trifluoromethyl)pyridine-2-yl)piperazin-1-yl)ethyl)acetamide], the melting point was 91.4 to 92.3 °C, the responders at 100 mg/kg [1, 9] was 25% and the responders at 100 mg/kg [2] was 0%. It also gave an inhibition at 100 µM [3] of 39.7%.

From PMC9221546, “New Phenylglycinamide Derivatives with Hybrid Structure as Candidates for New Broad-Spectrum Anticonvulsants” (Cells, 2022)
